Measured values as given in patent publication US20250320206A1, “STAT6 DEGRADERS” (Gilead Sciences, Inc., priority 2024, published 2025).

Columns and labels:
[1] = target: T1, STAT6 (Homo sapiens, UniProt P42226); assay: Stat6 Degrader Assay (HiBiT based, HeLa LgBiT clone 4.14); assay type: cell-based; conditions: HeLa LgBiT clone 4.14 HiBiT-STAT6, 4-24 h incubation; values given for compounds with >80% Emax; geometric mean; read-out: STAT6 degradation DC50
T1 construct: These cells express endogenous STAT6; host or cells: HeLa LgBiT clone 4.14
T1 sequence (P42226 1-847): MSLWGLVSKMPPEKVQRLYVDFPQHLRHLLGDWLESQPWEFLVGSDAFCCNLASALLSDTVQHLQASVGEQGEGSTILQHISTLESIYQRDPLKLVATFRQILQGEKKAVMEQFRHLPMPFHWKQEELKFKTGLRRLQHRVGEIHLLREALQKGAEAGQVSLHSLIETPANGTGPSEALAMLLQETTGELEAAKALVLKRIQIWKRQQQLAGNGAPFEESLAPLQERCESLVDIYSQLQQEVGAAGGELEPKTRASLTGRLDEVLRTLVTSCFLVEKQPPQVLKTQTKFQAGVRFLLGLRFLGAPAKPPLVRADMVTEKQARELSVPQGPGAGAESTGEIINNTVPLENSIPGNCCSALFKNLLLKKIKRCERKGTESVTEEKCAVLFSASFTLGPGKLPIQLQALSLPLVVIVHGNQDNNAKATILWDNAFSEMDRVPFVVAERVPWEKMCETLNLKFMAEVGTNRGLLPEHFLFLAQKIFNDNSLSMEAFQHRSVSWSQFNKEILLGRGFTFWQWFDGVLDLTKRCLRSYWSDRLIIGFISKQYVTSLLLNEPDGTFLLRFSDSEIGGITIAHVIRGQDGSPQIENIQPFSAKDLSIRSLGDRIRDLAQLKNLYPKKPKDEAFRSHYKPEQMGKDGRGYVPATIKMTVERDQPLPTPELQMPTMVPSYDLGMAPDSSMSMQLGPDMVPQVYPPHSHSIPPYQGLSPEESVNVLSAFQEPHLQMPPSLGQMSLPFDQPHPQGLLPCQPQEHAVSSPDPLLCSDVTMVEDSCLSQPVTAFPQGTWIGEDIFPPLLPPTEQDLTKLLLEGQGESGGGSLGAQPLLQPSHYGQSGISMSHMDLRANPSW
How it was run: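 HeLa LgBiT clone 4.14 cells with CRISPR HiBiT-tagged endogenous STAT6, 5000 cells/well, compound dosed then incubated 4-24 h at 37° C, 5% CO2. Nano-Glo substrate added, 0.5 h, luminescence read as non-degraded STAT6. Terfenadine 50 μM (cell kill) defines 100% degradation.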

[2] = tested on: Eotaxin-3 release in human whole blood stimulated with IL-4; assay: Human Whole Blood Eotaxin-3 Assay (IL-4 stimulated eotaxin-3 release); assay type: cell-based; conditions: IL-4 stimulation, 48 h, values given for compounds with >80% Emax, geometric mean
How it was run: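 Lithium-heparin human whole blood preincubated 2 h at 37° C with 4-fold serially diluted compounds (0.5% DMSO), then stimulated with recombinant human IL-4 ([…]) for 48 h. Eotaxin-3 (CCL26) in supernatant quantified by MSD immunoassay.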

Row | Structure (SMILES) | DC50 [1] [nM] | EC50 [2] [nM]
1 | CNc1cc(=O)n(-c2ccnc3c2cc([C@H](C)N2CC=C(c4c(C)cc(C(=O)N5CCC(CN6CCN(c7ccc8c(c7)C7(CC7)C(=O)N8C7CCC(=O)NC7=O)CC6)CC5)cc4F)CC2)n3C)cc1F (stereo partly drawn) [Example 3u302, 3-(5′-(4-((1-(3-fluoro-4-(1-((S)-1-(4-(5-fluoro-4-(methylamino)-2-oxopyridin-1 (2H)-yl)-1-methyl-1H-pyrrolo[2,3-b]pyridin-2-yl)ethyl)-1,2,3,6-tetrahydropyridin-4-yl)-5-methylbenzoyl)piperidin-4-yl)methyl)piperazin-1-yl)-2′-oxospiro[cyclopropane-1,3′-indolin]-1′-yl)piperidine-2,6-dione] | 4.9 | 29.2
2 | CNc1cc(=O)n(-c2ccnc3c2cc([C@H](C)N2CC=C(c4c(C)cc(C(=O)N5CCC(CN6CCN(c7ccc8c(c7)C(C)(C)C(=O)N8C7CCC(=O)NC7=O)CC6)CC5)cc4F)CC2)n3C)cc1F (stereo partly drawn) [Example 3u303, 3-(5-(4-((1-(3-fluoro-4-(1-((S)-1-(4-(5-fluoro-4-(methylamino)-2-oxopyridin-1 (2H)-yl)-1-methyl-1H-pyrrolo[2,3-b]pyridin-2-yl)ethyl)-1,2,3,6-tetrahydropyridin-4-yl)-5-methylbenzoyl)piperidin-4-yl)methyl)piperazin-1-yl)-3,3-dimethyl-2-oxoindolin-1-yl)piperidine-2,6-dione] | 21.7 | 37.1
3 | CNc1ccn(-c2ccnc3c2cc([C@H](C)N2CC=C(c4c(C)cc(C(=O)N5CCC(CN6CCN(c7ccc8c(c7)C(C)(C)C(=O)N8C7CCC(=O)NC7=O)CC6)CC5)cc4F)CC2)n3C)c(=O)c1 (stereo partly drawn) [Example 3u304, 3-(5-(4-((1-(3-fluoro-5-methyl-4-(1-((S)-1-(1-methyl-4-(4-(methylamino)-2-oxopyridin-1 (2H)-yl)-1H-pyrrolo[2,3-b]pyridin-2-yl)ethyl)-1,2,3,6-tetrahydropyridin-4-yl)benzoyl)piperidin-4-yl)methyl)piperazin-1-yl)-3,3-dimethyl-2-oxoindolin-1-yl)piperidine-2,6-dione] | 6.5 | 10.8

The next lines start with the values.

Row | DC50 [1] [nM] | EC50 [2] [nM] | Structure (SMILES)
4 | 2.2 | 4.8 | CNc1cc(=O)n(-c2ccnc3c2cc([C@H](C)N2CC=C(c4c(C)cc(C(=O)N5CCC(CN6CCN(Cc7ccc8c(c7)C7(CCC7)C(=O)N8C7CCC(=O)NC7=O)C[C@@H]6C)CC5)cc4F)CC2)n3C)cc1F (stereo partly drawn) [Example 3u309, 3-(5′-(((S)-4-((1-(3-fluoro-4-(1-((S)-1-(4-(5-fluoro-4-(methylamino)-2-oxopyridin-1 (2H)-yl)-1-methyl-1H-pyrrolo[2,3-b]pyridin-2-yl)ethyl)-1,2,3,6-tetrahydropyridin-4-yl)-5-methylbenzoyl)piperidin-4-yl)methyl)-3-methylpiperazin-1-yl)methyl)-2′-oxospiro[cyclobutane-1,3′-indolin]-1′-yl)piperidine-2,6-dione]
5 | 0.7 | 0.4 | CNc1ccn(-c2ccnc3c2cc([C@H](C)N2CC=C(c4c(C)cc(C(=O)N5CCC(CN6CCN(c7cc8c(cc7F)n(C7CCC(=O)NC7=O)c(=O)n8C)CC6)CC5)cc4F)CC2)n3C)c(=O)c1 (stereo partly drawn) [Example 3u310, 3-(6-fluoro-5-(4-((1-(3-fluoro-5-methyl-4-(1-((S)-1-(1-methyl-4-(4-(methylamino)-2-oxopyridin-1 (2H)-yl)-1H-pyrrolo[2,3-b]pyridin-2-yl)ethyl)-1,2,3,6-tetrahydropyridin-4-yl)benzoyl)-piperidin-4-yl)methyl)piperazin-1-yl)-3-methyl-2-oxo-2,3-dihydro-1H-benzo[d]imidazol-1-yl)-piperidine-2,6-dione]
6 | 0.5 | 0.4 | C[C@H]1CN(Cc2ccc3c(c2)n(C)c(=O)n3C2CCC(=O)NC2=O)CCN1CC1CCN(C(=O)c2cc(F)c(C3CCN(Cc4cc5c(-n6ccc7c(c6=O)CCN7)ccnc5n4C)CC3)c(F)c2)CC1 (stereo partly drawn) [Example 3u311, 3-(5-(((S)-4-((1-(3,5-difluoro-4-(1-((1-methyl-4-(4-oxo-1,2,3,4-tetrahydro-5H-pyrrolo[3,2-c]pyridin-5-yl)-1H-pyrrolo[2,3-b]pyridin-2-yl)methyl)piperidin-4-yl)benzoyl)piperidin-4-yl)methyl)-3-methylpiperazin-1-yl)methyl)-3-methyl-2-oxo-2,3-dihydro-1H-benzo[d]imidazol-1-yl)piperidine-2,6-dione]
